US20040057926A1, “Modulation of the immune response through the manipulation of arginine levels” (LSU Medical Center, priority 2002, published 2004)

What was measured:
T lymphocytes = test: Co-culture in transwells of stimulated PM and stimulated normal T lymphocytes, CD3ζ expression; assay type: cell-based, human
Method: T-cells were isolated from mononuclear cells of healthy donors by T-cell enrichment columns (R&D Systems, Minneapolis, Minn.) according to manufacturer specifications. T-cell purity (CD3+) ranged between 89-95%. The cycle of internalization and re-expression of the TCR-CD3 complex was induced by T-cell stimulation with 1 μg/ml of anti-CD3, 100 ng/ml of anti-CD28 (Becton Dickinson) and 10 μg/ml of goat anti-mouse IgG (KPL, Gaithersburg, Md.). Cells were stimulated in the absence of L-Arg and added to the co-cultures 24 h after stimulation.
PM were cultured in 6 well plates in RPMI containing 150 μM L-Arg and stimulated with murine rIL-4 (50 U/ml) and murine rIL-13 (50 ng/ml), or murine rIFN-γ (100 U/ml) for 24 hours. Then 1×10^6 normal T-cells stimulated with anti-CD3 plus anti-CD28 or 1×10^6 Jurkat cells, were cultured in the top chamber of a transwell system having 0.4 μm pores (Falcon, Franklin lakes, N.J.). CD3ζ expression was measured in Jurkat cells or T lymphocytes at different time points. PM were detached using trypsin/EDTA and the expression of protein and RNA for CAT-2B, ASE I, ASE II and iNOS was tested by western blot and northern blot respectively. Cytoplasmic extracts from PM were used to test ASE activity. Supernatants from stimulated PM were used to measure NO production using the Griess reagent method (Molecular Probes, Eugene, Oreg.). In addition, the extra-cellular concentration of L-Arg was tested in supernatants by HPLC (Dr. Gu Yao Wu laboratory, University of Texas) as described previously. O'Quinn, P. R., D. A. Knabe, and G. Wu. 2002. Arginine catabolism in lactating porcine mammary tissue. J Anim Sci. 80:467-474.
Flow cytometry analysis was performed as previously described. Taheri, F., J. B. Ochoa, Z. Faghiri, K. Culotta, H. J. Park, M. S. Lan, A. H. Zea, and A. C. Ochoa. 2001. […] Fluorescence acquisition and analysis were done using a Coulter-EPICS XL flow cytometer (Beckman-Coulter) with a 488 nm argon laser. The data were expressed as mean channel fluorescence intensity (MFI).

ASE I = test: Western blot for ASE I in PM cytoplasmic extracts; assay type: cell-based, mice; details: NOHA 100 μM, Nor-NOHA 50 μM
Method: Cytoplasmic extracts from PM, Jurkat cells or T lymphocytes were prepared as previously reported. Taheri, F., J. B. Ochoa, Z. Faghiri, K. Culotta, H. J. Park, M. S. Lan, A. H. Zea, and A. C. Ochoa. 2001. L-Arginine regulates the expression of the T-cell receptor zeta chain (CD3zeta) in Jurkat cells. Clin Cancer Res 7:958s-965s. Briefly, cells were resuspended in lysis buffer (50 mM HEPES, 150 mM NaCl, 5 mM EDTA, 1 mM NaOV4 and 0.5% Triton) containing 50 μg/ml of aprotinin, 50 μg/ml of leupeptin, 100 μg/ml of trypsin-chymotrypsin inhibitor and 2 mM PMSF. Lysates were centrifuged at 3000×g for 10 min at 4° C. Cytoplasmic extracts from Jurkat or T-cells were immunoblotted for CD3ζ and CD3ε. The expression ASE I, ASE II and iNOS was detected by immunoblot using PM extracts. GAPDH was used as housekeeping protein. Cytoplasmic extracts were electrophoresed in 12 or 8% Tris-Glycine gels (Novex, San Diego, Calif.), transferred to PVDF membranes and immunoblotted with the appropriate antibodies. The reactions were detected using the ECL kit (Amersham-Pharmacia).

Jurkat cells [1] = test: CD3ζ chain expression in Jurkat cells with H. pylori sonicate or proteins; assay type: cell-based; details: NOHA 10 μg/ml; difference not statistically significant
Method: Jurkat cells were cultured for 24 h in medium with the H. pylori sonicate at concentrations ranging from 1 μg/ml to 50 μg/ml. CagA (2 μg/ml) (Austral Biologicals; San Ramon, Calif.), VacA (4 μg/ml) (Austral), H. pylori urease A (2 μg/ml) (Austral), H. pylori urease B (2 μg/ml) (Austral) and E. coli LPS (500 ng/ml) (Sigma-Aldrich; St Louis, Mo.) were also used. Jurkat and T-cells were counted and stained with FITC-conjugated anti-human CD3 (Beckman-Coulter; Miami, Fla.) for 20 min in the dark. After washing with PBS the cells were stained for 8 min with phycoerythrin (PE)-conjugated anti-human CD3ζ (Beckman-Coulter; Miami, Fla.) in PBS containing 50 μg/ml of digitonin. The cells were washed twice in PBS and analyzed in an EPICS XL Coulter Flow Cytometer. The results compare the percentage of cells expressing CD3ζ as well as the mean fluorescence intensity.
[…] After addition of the sonicate plus NOHA or sonicate plus L-arginine mixture to the Jurkat cells, 1.0 μCi of ^3H-thymidine (NEN) was added per well, the cells were incubated at 37° C. for 18 h, harvested onto filters and counted in a β-counter (Packard).

H. pylori arginase = details: McGee, manuscript in preparation; cited from earlier work
Jurkat cells [2] = test: CD3ζ chain expression in Jurkat cells on L-arginine depletion or replenishment (Western blot, flow cytometry); assay type: cell-based
Method: Next, it was tested whether L-arginine depletion altered the expression of the key elements of the T-cell antigen receptor and IL-2 receptor in Jurkat cells. […] The decreased expression of ζ chain was not due to an overall protein degradation since the expression of GAPDH and CD3ε was virtually unchanged over the same period of time. […] The initial decrease in CD3ζ could be seen as early as 24 hours, but continued up to 7 days in culture as compared to its expression in Jurkat cells cultured in C-RPMI that remains unchanged (data not shown).
Reappearance of CD3ζ chain occurred either by adding L-arginine alone at a concentration of 100 μM (FIGS. 4a, dashed line, and 4b, lane 3), or by replacing the TCM with C-RPMI (FIGS. 4a, solid line, and 4b, lane 4). […] The data discussed is representative of at least five experiments in each case.

| Compound | CD3ζ in normal stimulated T lymphocytes co-cultured with IL-4+IL-13 activated PM (T lymphocytes) | ASE I up regulation after IL-4+IL-13 stimulation (ASE I) | CD3ζ chain expression in Jurkat cells treated with H. pylori sonicate (Jurkat cells [1]) | inhibition of H. pylori arginase (H. pylori arginase) | L-Arg concentrations that cause the rapid decrease of CD3ζ chain (Jurkat cells [2]; Jurkat cells, in vitro) | loss of CD3ζ on replenishing L-arginine in the tissue culture medium (Jurkat cells [2]; L-arginine alone at 100 μM) |
| --- | --- | --- | --- | --- | --- | --- |
| NC(=NCCC[C@H](N)C(=O)O)NO [NOHA, NG-hydroxy-L-arginine] | prevented the loss of CD3ζ | did not prevent ASE I up regulation | partially inhibited the drop in CD3ζ chain expression | only partially inhibit H. pylori arginase | – | – |
| N=C(N)NCCC[C@H](N)C(=O)O [L-arginine] | – | – | – | – | below 40 μM | fully reversible |
